A melting point compilation (Tetko et al.; mined from patent text by program, amines drawn as free bases though some values may be those of a salt)

Point of comparison: `CCOC(=O)c1ccc(-c2ccc(OCCO)c(-c3ccc(N4CCCC4)c(C(C)(C)C)c3)c2)cc1`, melting point 193 °C. Against it:
- C=Cc1cnc(Nc2ccc(C#N)cc2)nc1Nc1c(C)cc(C)cc1C — higher, 237 to 242 °C
- CCC(c1ccc(C(O)(C(F)(F)F)C(F)(F)F)cc1)S(=O)(=O)c1ccccc1 (stereo unspecified) — lower, 148 °C
- CC1(C)CCCC1CNC(=O)C=Cc1ccc(C(=O)O)cc1 (stereo unspecified) — lower, 138 to 140 °C
- CC(=S)NC[C@H]1CN(c2ccc(N3CCN(C)C3=O)c(F)c2)C(=O)O1 — lower, 168 °C
- CCc1cn(CC)cc(-c2cccc(C(F)(F)F)c2)c1=O — lower, 67 to 70 °C
- COc1ccccc1C=C1NC(=O)N(C)C1=O — lower, 189 to 190 °C
- CC(C)(C)C(=O)N[C@@H](Cc1ccccc1)C(=O)N[C@@H](Cc1ccccc1)C(=O)NC(CO)Cc1c[nH]cn1 (stereo partly specified) — lower, 124 to 130 °C
- CC(NC(=O)c1ccccc1I)C(O)c1ccccc1 (stereo unspecified) — lower, 129 to 130 °C
- CN1CCN(Cc2cc(N)cc(C(F)(F)F)c2)CC1 — lower, 98 to 99 °C
- Cc1cccc(N2CCN(c3ccc(Br)nn3)CC2)c1 — lower, 146 °C
- Cc1[nH]c(=O)[nH]c1C(=O)c1ccc(N2CCOCC2)cc1 — higher, 283 to 286 °C
- CCOC(=O)c1nc(N)sc1-c1cn2c(C)cccc2n1 — higher, 234 to 236 °C
- COc1ccc(-c2[nH]c(-c3ccc(N)c(C)c3)nc2C(=O)Nc2nccs2)cc1 — higher, > 250 °C
- CN(C)C=NC(=S)NC1CCN(C(=O)OC(C)(C)C)CC1 — lower, 170 °C
- CCCCC1Cc2c(n(-c3ccc(F)cc3)c3ncccc3c2=O)O1 (stereo unspecified) — higher, 243 to 245 °C
- COCc1cc(-c2c(S(C)(=O)=O)ccc(C(=O)C3C(=O)CCCC3=O)c2Cl)no1 — lower, 39 to 40 °C
- COc1cccc(NC(=O)C(C)(C)C)c1C(C)O (stereo unspecified) — lower, 159 °C
- COc1nc2ccccn2c(=O)c1-c1ccc(NC2CCN(C(=O)OC(C)(C)C)C2)cc1 (stereo unspecified) — lower, 102 to 104 °C
- O=C(c1ccccc1)c1ccc2sc(NCCO)nc2c1 — lower, 159 °C
- Cc1cc2cc(C3(O)CCN(C)CC3)ccc2o1 — lower, 118 to 120 °C
- COCOc1ccc(-c2ccc(C=C3SC(=O)NC3=O)cc2)cc1C12CC3CC(CC(C3)C1)C2 — higher, 253 to 254 °C
- O=c1nc(-c2cccc(Oc3ccccc3)n2)sc2ccccc12 — lower, 161 °C
- Fc1ccccc1CO[C@H]1CO[C@@H](c2ccccc2)OC1 — lower, 65 to 67 °C
- CCOC(=O)c1cccc(NC(=O)Oc2ccccc2)c1 — lower, 138 °C
- CCCCCCNC(=O)C1CCCN1 (stereo unspecified) — lower, 61 to 64 °C
- COc1ccc(CSCC2NC(=O)C2NC(=O)OC(C)(C)C)cc1 (stereo unspecified) — lower, 120 to 123 °C
- Cc1cccc(-n2nc(C)cc2N)n1 — lower, 149 to 150 °C
- CC1(C(F)(F)F)OC(=O)Nc2ccc(Cl)cc21 (stereo unspecified) — higher, 216 °C
- CCCCSc1ccc(-c2cc3ccccc3[nH]2)cc1 — lower, 189 to 191 °C
- O=C1Cc2ccccc2N1CC(F)(F)F — lower, 155 to 162 °C
- COC(=O)c1cc(-c2ccc(OC)c(F)c2)nn(CC2CC2)c1=O — lower, 114 to 117 °C
- O=C1CCCc2cc(I)ccc21 — lower, 77 to 78 °C
- CCCCCCCCOc1ccc(-c2cnc(-c3ccc(O)cc3)nc2)cc1 — lower, 137 °C
- COc1ccc(-c2nc(C(=O)c3ccc(F)cc3)c[nH]2)cc1 — higher, 245 to 247 °C
- CC(C)(N)c1ccc(-c2nc(Nc3cccc(CCN4CCOCC4)c3)ncc2C#N)cc1 — lower, 166 to 167 °C
- CCOCc1nc2c(N)nc(C)cc2n1CCCCNC(=O)N1CCOCC1 — lower, 156 to 160 °C
- O=C(OCCN1CCC(Nc2nc3ccccc3n2Cc2ccc(F)cc2)CC1)N1CCOCC1 — lower, 145 °C
- C#Cc1cn(C2CC(O)C(COC(=O)C(C)(C)C)O2)c(=O)[nH]c1=O (stereo unspecified) — lower, 64 to 66 °C
- CCCS(=O)c1ccc(-c2coc3ccc(-c4nnc(C)o4)cc23)cc1 (stereo unspecified) — lower, 140 to 141 °C
- COc1ccc(Nc2cccc3c2C(=O)N(C2CCC(=O)NC2=O)C3=O)cc1OC (stereo unspecified) — higher, 215 to 217 °C
- OC1(CCc2ccccc2)CCOCC1 — lower, 74 to 75 °C
- COc1nccc(N[C@H]2CC[C@H](c3ccccc3)CC2)c1Br — lower, 105 °C
- NC(=O)c1cc2c(cc1OCC1CCCCC1)OCCC[C@H]2O — lower, 164 to 165 °C
- Nc1sc2c(c1C(=O)c1ccc(Cl)cc1)CCN(CCc1ccccc1)C2 — lower, 148 to 150 °C
- COc1cc2c(cc1OC)C(c1ccco1)=NN=C(C)C2 — lower, 155 to 157 °C
- CCCCn1c(=O)c2c(ncn2S(=O)(=O)c2c(C)noc2C)n(CCCC)c1=O — lower, 103 to 105 °C
- C[C@@H](NC(=O)[C@H](Cc1ccc(OC(C)(C)C)cc1)N(C)C(=O)OC(C)(C)C)C(=O)O — lower, 109 to 110 °C
- Cc1cc(Br)ccc1C(=O)N=CN(C)C — lower, 87 to 89 °C
- O=[N+]([O-])c1ccc(C=Cc2ccccc2)cc1 — lower, 46 to 50 °C
- c1ccc(-c2cc3ccccc3s2)cc1 — lower, 171 to 172 °C
- CC=C(c1ccc(N(C)C)cc1)c1ccc(N(C)C)cc1 — lower, 99 to 101 °C
- CC(C)=CCN1CCc2c(sc(N)c2C(=O)c2ccc(Cl)cc2)C1 — lower, 118 to 120 °C
- CC(C)Oc1c(-c2ccc(S(C)(=O)=O)cc2)cnn(-c2cc(F)ccc2F)c1=O — lower, 161 to 164 °C
- CNC(=S)C(OC)c1ccccn1 (stereo unspecified) — lower, 104 to 105 °C
- Cc1nn(C)c(OCC(=O)C(C)(C)CCl)c1C(=O)c1ccc(Cl)cc1Cl — lower, 58 to 60 °C
- CCOC(=O)N(NC(N)=O)c1ccc(CC[Si](OCC)(OCC)OCC)cc1 — lower, 123 to 124 °C
- Cc1ccc([N+](=O)[O-])c2c1C(N1C(=O)c3ccccc3C1=O)CCC2=O (stereo unspecified) — higher, 220 to 230 °C
- CCCCCCCCCCCC(=O)OC1C(C)C(c2ccccc2)N(O)C(c2ccccc2)C1C (stereo unspecified) — lower, 108 to 112 °C
- O=C1OC(CCO)c2ccccc21 (stereo unspecified) — lower, 122 to 124 °C
- CCOC(=O)c1cc2c(C(F)(F)F)cc(CP(=O)(OCC)OCC)cc2n1C — lower, 95 to 96.5 °C
- CCOC(=O)c1c(C#N)nn(-c2c(Cl)cc(C(F)(F)F)cc2Cl)c1N — higher, 202 °C
- CC(C)c1nc(O)c(Br)c(O)n1 — higher, > 250 °C
- CN1CC(CCCl)Oc2ncc(Cl)cc2C1=O (stereo unspecified) — lower, 78 to 79 °C
- OCc1cc2cc(-c3ccc(OC(F)(F)F)cc3)ccc2n1Cc1ccccc1 — lower, 108 to 109 °C
- COc1nc2ccccc2cc1/C=C/c1cc(CN2CCN(S(C)(=O)=O)CC2)ccc1[N+](=O)[O-] — lower, 156 to 157 °C
- COc1ccc2[nH]cc(CCN=c3sc4ccccc4s3)c2c1 — lower, 139 to 140 °C
- CCOCCOCCOCC1(c2ccc(Oc3cncc4sc(-c5nnc(N)o5)cc34)cc2)CC1 — lower, 113 to 114 °C
- COc1ccc(-c2cc(=O)n(Cc3ccncc3)nc2-c2ccc(OC)cc2)cc1 — lower, 182 to 183 °C
- COc1ccc([C@H]2O[C@](O[Si](C)(C)C)(C(F)(F)F)C(C)(C)N2C(=O)c2ccccc2)cc1 (racemic) — lower, 120 to 123 °C
- CCCCCN1C(=O)C2(COc3cc(F)c(F)cc32)c2ccccc21 (stereo unspecified) — lower, 48 to 50 °C
- Cn1ncnc1COc1nc2c(-c3ccccc3)nncc2cc1-c1ccccc1 — higher, 222 to 223 °C
- CCCC12CCC3C4CCCC=C4CCC3C1CCC2=O (stereo unspecified) — lower, 89 to 90 °C
- CCCCCCCC(=O)OC(C)c1ccc(-c2ccc(OCc3ccccc3)cc2)cc1 (single isomer, unassigned; (+)) — lower, 91 to 92 °C
- CC(C)(C)OC(=O)c1nc(-c2cccc3ccccc23)[nH]c1-c1ccncc1 — lower, 184 to 190 °C
- COc1cc(C(CC(=O)O)N2Cc3ccccc3C2=O)cc(OC)c1OC (stereo unspecified) — lower, 162 to 164 °C
- CNC(=S)NNc1ccnc2c(NC(=O)c3c(Cl)cccc3Cl)cccc12 — higher, > 258 °C
- Nc1nc2c(s1)CC(NC(=O)[C@@H]1CCCN1C(=O)CNC(c1ccccc1)(c1ccccc1)c1ccccc1)CC2 (stereo partly specified) — lower, 125 to 128 °C
- N#CNC(=NC1CCN(Cc2ccccc2)CC1)N1CCc2ccccc2CC1 — not separable, 192 to 194 °C
- Cc1ccc(CSc2nc3cc4c(cc3[nH]2)CCC4)nc1 — lower, 157 to 158 °C
- COc1ccc2[nH]c(CCCCCCCCCCCCCCO)cc2c1 — lower, 68 to 69 °C
- COC(=O)C(C(C)C)N(C)S(=O)(=O)c1ccc(-c2ccc(NC(=O)c3oc4cccc(C(O)CO)c4c3C)cc2)cc1 (stereo unspecified) — lower, 182 to 185 °C
- O=C(Nc1c(Cl)cncc1Cl)c1ccc(SCF)c(OC2CCCC2)c1 — lower, 111 to 113 °C
- COc1cccc(C=Cc2nc3c(s2)N(C(C)=O)CCC3)c1OC — lower, 185 to 187 °C
- CCCCCCCC(=O)c1c(C(=O)CCCCCCC)c(-c2ccccc2)n(-c2ccc(C)cc2)c1-c1ccccc1 — lower, 51 to 53 °C
- OCC1(n2nc3ccccc3n2)OCC1c1ccccc1 (stereo unspecified) — lower, 119 to 123 °C
- CC(C)(C)C(O)(Cn1cncn1)C(Cl)=CCl (stereo unspecified) — lower, 49 to 52 °C
- COC(=O)c1cccc(S(=O)(=O)N2CCC(N3N=C(c4ccc(OC)c(OC)c4)C(C)(C)C3=O)CC2)c1 — higher, 214 °C
- CCOC(=O)c1nc2cc(-c3ccccc3)sc2nc1N — lower, 173 to 175 °C
- CCCCc1nn(-c2cc(N)ccc2Cl)c(=O)n1Cc1ccc(-c2ccccc2S(=O)(=O)NC(=O)OC(C)(C)C)cc1F — higher, 208 to 210 °C
- CCC(=O)c1c(CC)n(Cc2ccccc2Cl)c2cc(C#N)ccc12 — lower, 115 to 118 °C
- Cc1cc([N+](=O)[O-])c(Cl)cc1Cl — lower, 40 to 44 °C
- COc1ccc(C(CC#N)CC#N)cc1O — lower, 90 to 92 °C
- O=[N+]([O-])c1nccn1C1CCCO1 (stereo unspecified) — lower, 91 °C
- N#CN(Cc1ccc([N+](=O)[O-])cc1)C(=O)CCCC(=O)N(C#N)Cc1ccc([N+](=O)[O-])cc1 — lower, 146 to 148 °C
- O=C(O)c1cn(C2CC2)c2cc(Cl)ccc2c1=O — higher, 307 to 308 °C
- CCCC1CC2=CC(=O)CCC2C2CCC3(C)C(OC(C)=O)CCC3C12 (stereo unspecified) — lower, 97 to 100 °C
- O=C1CC2(CCCC2)C1(Cl)CC(Cl)(Cl)Cl (stereo unspecified) — lower, 70 to 73 °C
- COc1cc2c(cc1OC)CN(c1c(C)c(C)c3c(c1C)C(c1ccc(C(C)C)cc1)C(C)(C)O3)C2 (stereo unspecified) — lower, 153 to 155 °C
- O=S(=O)(NCCN1CCOCC1)C(F)(F)F — lower, 106 to 108 °C
- COc1ccc(N2CCOCC2)c2sc(NC(=O)N3CC4CCC3CO4)nc12 (stereo unspecified) — lower, 164 to 170 °C
